Reference: patent publication US20130131161A1, “METHODS AND COMPOSITIONS FOR CARDIOVASCULAR DISEASES AND CONDITIONS” (priority 2009, published 2013)

Test system: Human umbilical vein endothelial cells (HUVECs)
Assay: eNOS activity analysis: NO, ONOO− and NO/ONOO− release from HUVECs of 50 genotyped donors in response to LA-419 (Example 2)
Assay type: cell-based
Conditions: for Fold difference NO (mean ± sd) / Fold difference NO/ONOO− (mean ± sd) / Fold difference ONOO− (mean ± sd): (LA-419 1 μM)/(control)
Description: Concurrent measurements of NO and ONOO^− were carried out with tandem electrochemical nanosensors combined into one working unit with a total diameter of 200-500 nm (FIG. 1). Their design was based on previously developed and well-characterized chemically modified carbon-fiber technology (Malinski and Taha, 1992; Lvovich and Scheeline, 1997). Each of the nanosensors was made by depositing a sensing material on the tip of a carbon fiber (length 4-5 μm, diameter 0.2-0.5 μm). The fibers were sealed with nonconductive epoxy and electrically connected to copper wires with conductive silver epoxy. A conductive film of polymeric nickel (II) tetrakis(3-methoxy-4-hydroxyphenyl)porphyrin for the NO-sensor and polymeric film of Mn (III) [2.2]paracyclophanylporphyrin was used for the ONOO^−-sensor.
A module of NO/ONOO^− nanosensors (diameter 1-2 μm) with a platinum wire (0.1 mm) counter electrode and saturated calomel reference electrode (SCE) were applied. Differential pulse voltammetry (DPV) and amperometry were performed with a computer-based Gamry VFP600 multichannel potentiostat. DPV was used to measure the basal NO and ONOO^− concentrations, and amperometry was used to measure changes in NO and ONOO^− concentrations from its basal level with time. The DPV current at the peak potential characteristic for NO oxidation (0.65 V) and ONOO^− reduction (−0.45 V) was directly proportional to the local concentrations of these compounds in the immediate vicinity of the sensor. Linear calibration curves (current vs. concentration) were constructed for each sensor from 10 nM to 3 μM before and after measurements with aliquots of NO and ONOO^− standard solutions, respectively. The detection limit of the sensors was 1.0 nM.
The quantification of each analyte (concentration in nM) was performed using a maximum current from amperograms and standard calibration curves. A reproducibility of measurements with nanosensors is relatively high (between 5-12%). […] The sensors were slowly raised 5±2 μm from the surface of a single endothelial cell. The eNOS agonist, calcium ionophore A23187 (CaI) as well as the different drugs were then added to the surrounding media at the cell surface with a nanoinjector that was also positioned by a computer controlled-micromanipulator.
This example describes the genotype-specific response of the three major eNOS variants to 1 μM and 5 μM concentrations of LA-419. The three major genetic polymorphisms studied were the Glu298Asp variant (E298D or 894G→T) in exon 7 of […], the −786T→C variant in the promoter region, and the intron 4 polymorphism (VNTR). All of these variants have possible effects on the cardiovascular system and endothelial dysfunction. For this study, human umbilical vein endothelial cells (HUVECs) from 50 donors between 18 and 32 years of age were used.
For the analysis several analysis techniques were employed. First, the effect of genotype on NO and ONOO^− release was explored within the different concentrations of LA-419 (control, 1 μM, 5 μM), calculated as the average peak release (nmols/L) of NO, ONOO^−, and NO/ONOO^−. The effect of genotype on the net increase in NO, ONOO^−, and NO/ONOO^− for LA-419 (1 μM and 5 μM) as compared to control was also measured. In addition, an analysis was done on the effect of genotype on the % change in NO, ONOO^−, and NO/ONOO^− production for LA-419 (1 μM and 5 μM), calculated as:
% Change=[(avg. LA-419−avg. control)/(avg. control)]*100
Finally, an evaluation was undertaken concerning the effect of genotype on the production of NO, ONOO^−, and NO/ONOO^− as the fold difference of control for LA-419 (1 μM and 5 μM), calculated as:
Fold Difference=(avg. LA-419)/(avg. control)
Within each calculation technique the results were compared for statistical significance using a non-parametric ANOVA Kruskal-Wallace test or a non-parametric Mann-Whitney U test. Statistical significance was set at a p-value <0.05 in a two-tailed distribution. […]

[1] = 1 μM LA-419, Intron 4 variant b/a, a/a, c/c (n=14)
[2] = 1 μM LA-419, Intron 4 variant b/b (n=31)
[3] = 5 μM LA-419, Intron 4 variant b/a, a/a, c/c (n=14)
[4] = 5 μM LA-419, Intron 4 variant b/b (n=31)
[5] = Combination of all G894T + T-786C genotypes but G/G + T/T, n=31
[6] = Combination of all G894T + T-786C genotypes but T/T + C/C, n=46

## CC(=O)SC1COC2C(O[N+](=O)[O-])COC12 (stereo not drawn) [LA-419, S-(6-Nitro-oxi-hexahydro-furo[3,2-b]furan-3-1-il)thioacetate]
[1]
  NO % Change (mean ± sd): 11.76 (29.57) %
  NO/ONOO− % Change (mean ± sd): 28.01 (62.22) %
  ONOO− % Change (mean ± sd): −2.68 (29.78) %
[2]
  NO % Change (mean ± sd): 13.46 (23.13) %
  NO/ONOO− % Change (mean ± sd): 43.27 (71.09) %
  ONOO− % Change (mean ± sd): −10.24 (27.17) %
[3]
  NO % Change (mean ± sd): 16.16 (6.09) %
  NO/ONOO− % Change (mean ± sd): 44.37 (12.85) %
  ONOO− % Change (mean ± sd): −19.27 (5.27) %
[4]
  NO % Change (mean ± sd): 13.52 (6.80) %
  NO/ONOO− % Change (mean ± sd): 42.24 (17.73) %
  ONOO− % Change (mean ± sd): −19.19 (7.76) %
[5]
  Fold difference NO (mean ± sd): 1.14 (0.26)
  Fold difference NO/ONOO− (mean ± sd): 1.41 (0.71)
  Fold difference ONOO− (mean ± sd): 0.92 (0.30)
[6]
  Fold difference NO (mean ± sd): 1.13 (0.25)
  Fold difference NO/ONOO− (mean ± sd): 1.37 (0.68)
  Fold difference ONOO− (mean ± sd): 0.93 (0.28)
G894T + T-786C G/G + T/C, n=8
  Fold difference NO (mean ± sd): 1.03 (0.17)
  Fold difference NO/ONOO− (mean ± sd): 1.07 (0.37)
  Fold difference ONOO− (mean ± sd): 1.07 (0.36)
G894T + T-786C G/G + T/T, n=18
  Fold difference NO (mean ± sd): 1.10 (0.20)
  Fold difference NO/ONOO− (mean ± sd): 1.28 (0.57)
  Fold difference ONOO− (mean ± sd): 0.94 (0.23)
G894T + T-786C G/T + C/C, n=1
  Fold difference NO (mean ± sd): 0.86 (0)
  Fold difference NO/ONOO− (mean ± sd): 0.49 (0)
  Fold difference ONOO− (mean ± sd): 1.77 (0)
G894T + T-786C G/T + T/C, n=13
  Fold difference NO (mean ± sd): 1.28 (0.33)
  Fold difference NO/ONOO− (mean ± sd): 1.70 (0.81)
  Fold difference ONOO− (mean ± sd): 0.81 (0.15)
G894T + T-786C G/T + T/T, n=4
  Fold difference NO (mean ± sd): 1.08 (0.03)
  Fold difference NO/ONOO− (mean ± sd): 1.12 (0.18)
  Fold difference ONOO− (mean ± sd): 0.98 (0.18)
G894T + T-786C T/T + C/C, n=1
  Fold difference NO (mean ± sd): 1.02 (0)
  Fold difference NO/ONOO− (mean ± sd): 1.23 (0)
  Fold difference ONOO− (mean ± sd): 0.83 (0)
G894T + T-786C T/T + C/C, n=3
  Fold difference NO (mean ± sd): 1.07 (0.06)
  Fold difference NO/ONOO− (mean ± sd): 1.20 (0.04)
  Fold difference ONOO− (mean ± sd): 0.89 (0.06)
G894T + T-786C T/T + T/C, n=2
  Fold difference NO (mean ± sd): 1.11 (0.36)
  Fold difference NO/ONOO− (mean ± sd): 2.25 (1.17)
  Fold difference ONOO− (mean ± sd): 0.52 (0.11)
G894T G/G & G/T, n=44
  Fold difference NO (mean ± sd): 1.13 (0.25)
  Fold difference NO/ONOO− (mean ± sd): 1.34 (0.64)
  Fold difference ONOO− (mean ± sd): 0.95 (0.27)
G894T G/G, n=26
  Fold difference NO (mean ± sd): 1.08 (0.19)
  Fold difference NO/ONOO− (mean ± sd): 1.22 (0.52)
  Fold difference ONOO− (mean ± sd): 0.98 (0.27)
G894T G/T & T/T, n=23
  Fold difference NO (mean ± sd): 1.18 (0.28)
  Fold difference NO/ONOO− (mean ± sd): 1.53 (0.77)
  Fold difference ONOO− (mean ± sd): 0.87 (0.26)
G894T G/T, n=18
  Fold difference NO (mean ± sd): 1.21 (0.30)
  Fold difference NO/ONOO− (mean ± sd): 1.50 (0.77)
  Fold difference ONOO− (mean ± sd): 0.90 (0.27)
G894T T/T, n=5
  Fold difference NO/ONOO− (mean ± sd): 1.62 (0.82)
  Fold difference ONOO− (mean ± sd): 0.75 (0.21)
Intron 4 a/a, n=1
  Fold difference NO (mean ± sd): 1.09 (0)
  Fold difference NO/ONOO− (mean ± sd): 1.23 (0)
  Fold difference ONOO− (mean ± sd): 0.89 (0)
Intron 4 a/a, n=3
  Fold difference NO (mean ± sd): 0.95 (0.25)
  Fold difference NO/ONOO− (mean ± sd): 0.96 (0.45)
  Fold difference ONOO− (mean ± sd): 1.10 (0.34)
Intron 4 b/a, a/a, c/c, n=14
  Fold difference NO (mean ± sd): 1.13 (0.23)
  Fold difference NO/ONOO− (mean ± sd): 1.28 (0.62)
  Fold difference ONOO− (mean ± sd): 0.97 (0.30)
Intron 4 b/a, n=10
  Fold difference NO (mean ± sd): 1.21 (0.28)
  Fold difference NO/ONOO− (mean ± sd): 1.43 (0.65)
  Fold difference ONOO− (mean ± sd): 0.93 (0.31)
Intron 4 b/b, b/a, c/c, n=42
  Fold difference NO (mean ± sd): 0.95 (0.25)
  Fold difference NO/ONOO− (mean ± sd): 1.42 (0.69)
  Fold difference ONOO− (mean ± sd): 0.91 (0.27)
Intron 4 b/b, n=31
  Fold difference NO (mean ± sd): 1.13 (0.23)
  Fold difference NO/ONOO− (mean ± sd): 1.43 (0.71)
  Fold difference ONOO− (mean ± sd): 0.90 (0.27)
Intron 4 c/c, n=1
  Fold difference NO (mean ± sd): 0.73 (0)
  Fold difference NO/ONOO− (mean ± sd): 0.74 (0)
  Fold difference ONOO− (mean ± sd): 0.99 (0)
T-786C C/C, n=1
  Fold difference NO (mean ± sd): 1.02 (0)
  Fold difference NO/ONOO− (mean ± sd): 1.23 (0)
  Fold difference ONOO− (mean ± sd): 0.83 (0)
T-786C C/C, n=4
  Fold difference NO (mean ± sd): 1.02 (0.12)
  Fold difference NO/ONOO− (mean ± sd): 1.03 (0.36)
